Measurements reported in the supplement of paper PMC10307832.

Columns and labels:
Assay in all cases: relative viability (nuclei count vs DMSO), 5 days (fraction); higher = more cells survive
[1] = compound: C1=CC=C(C(=C1)C2=CC=C(C=C2)C3=CSC4=C3C(=C(C(=O)N4)C#N)O)O
Summary of the method: (§1)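 Acceptance criteria were a control CV below 25% and at least one doubling per plate. Lung cancer cell lines in 1536-well plates got five library-drug doses (not always all listed) √10 apart by pinning and were left 5 days with no medium change. Viability divides treated-well nuclei by vehicle-well nuclei and is the median across plates. Nuclei were counted by MetaXpress from 4× Hoechst images.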

TGX 221 = compound: CC1=CN2C(=O)C=C(N=C2C(=C1)C(C)NC3=CC=CC=C3)N4CCOCC4 [TGX 221]
Summary of the method: as §1

Ricolinostat = compound: O=C(CCCCCCNC(=O)c1cnc(N(c2ccccc2)c2ccccc2)nc1)NO [Ricolinostat]
Summary of the method: as §1

Ricolinostat + Foretinib = compound: O=C(CCCCCCNC(=O)c1cnc(N(c2ccccc2)c2ccccc2)nc1)NO [Ricolinostat] + COc1cc2c(Oc3ccc(NC(=O)C4(C(=O)Nc5ccc(F)cc5)CC4)cc3F)ccnc2cc1OCCCN1CCOCC1 [Foretinib] (partner 0.25 µM)
Summary of the method: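 Nuclei were stained with Hoechst during a one-step fixation (final 0.05% Triton X-100, 1% formaldehyde, 1 ug/ml Hoechst) carried out 5 days after dosing, then counted on 4× images. The cells, lung cancer lines in 1536-well plates, had been dosed by pin tool the day after seeding with one drug alone or a fixed anchor-drug dose plus five library-drug doses (not always all listed) in √10 steps. Relative viability is the nuclei count in treated wells divided by that in vehicle wells, and each value is the median of duplicate plates.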

Cell Line	relative viability ([1]; 0.08 µM)	relative viability ([1]; 0.253 µM)	relative viability ([1]; 0.8 µM)	relative viability ([1]; 2.53 µM)	relative viability ([1]; 8 µM)	relative viability (TGX 221; 0.08 µM)	relative viability (TGX 221; 0.253 µM)	relative viability (TGX 221; 0.8 µM)	relative viability (TGX 221; 2.53 µM)	relative viability (TGX 221; 8 µM)	relative viability (Ricolinostat; 0.08 µM)	relative viability (Ricolinostat; 0.253 µM)	relative viability (Ricolinostat; 0.8 µM)	relative viability (Ricolinostat; 2.53 µM)	relative viability (Ricolinostat + Foretinib; first compound 0.08 µM)	relative viability (Ricolinostat + Foretinib; first compound 0.253 µM)	relative viability (Ricolinostat + Foretinib; first compound 0.8 µM)	relative viability (Ricolinostat + Foretinib; first compound 2.53 µM)
SK-LU-1	1.11	0.96	0.994	1.16	0.81	0.954	0.964	0.963	0.932	0.876	0.939	0.981	0.995	0.72	0.739	0.908	0.772	0.722
NCI-H2347	0.996	1.15	0.989	1.07	0.916	0.898	0.987	0.986	0.88	0.851	0.911	0.964	0.994	0.92		1.04	0.792	0.802
HCC-15	0.958	1.14	1.04	1.04	0.904	0.945	0.965	0.9	0.916	0.969	0.847	0.94	0.983	0.938	0.876	1.03	1.05	1.05
NCI-H1355	0.839	1.13	1.02	1.02	0.955	0.979	0.948	0.972	0.864	0.902	0.855	0.97	0.948	0.893	0.953	0.978	0.976	0.873
NCI-H2405	0.977	0.995	0.927	0.958	0.955	0.949	0.991	0.968	0.954	0.889	0.878	1	1.01	0.802	0.927	1.05	1.07	1.11
EKVX	0.961	1.13	0.971	0.967	0.851	0.865	0.888	0.907	0.838	0.855	0.764	0.918	0.907	0.964	0.845	0.846		0.725
NCI-H1993	0.892	1.17	0.897	0.87	0.83	0.878	0.762	0.886	0.681	0.877	0.726	1	0.999	1.04		0.893	0.854	0.856
HOP-62	1.08	1.12	1	1.08	0.82	0.965	1.06	1.04	1.09	1.09	0.932	0.987	1.03	0.913	1	1.03	1	1.09
SK-MES-1	1.01	1.06	1.01	1.04	0.819	1.01	0.958	0.941	0.75	0.67	0.824	0.979	0.983	0.979	0.782	0.946	0.928	0.917
ABC-1	0.854	0.866	1.01	0.874	0.881	0.827	0.924	0.979	1.02	0.922	1	0.996	0.846	0.88	0.88	0.901	1.11	0.912
NCI-H1755	1.06	1.08	0.991	1.05	0.923	0.954	0.971	0.972	0.915	0.828	0.885	0.961	0.978	1.03	0.853	0.925	0.903	0.91
NCI-H1703	0.929	0.965	0.902	0.892	0.789	0.892	0.785	0.776	0.672	0.634		1.01	0.928	1		0.398	0.318	0.513
NCI-H838	0.893	1.06	0.98	0.882	0.824	0.946	0.833	0.886	0.83	0.761	0.822	1.05	0.981	0.95	0.9	1.07	1.06	0.941
NCI-H322M	0.866	0.918	0.95	0.949	0.96	0.876	0.875	0.904	0.801	0.841		0.964	0.958	0.923		0.964	0.893	0.928
NCI-H1299	1.09	1.07	1.01	1.06	0.897	0.98	1.01	1.01	1.06	0.993	0.997	0.983	0.982	0.954	1.05	1.07	1.07	1.06
NCI-H441	0.928	1.2	1.22	1.12	0.63	0.952	0.955	1.04	1.08	1.06	0.793	0.972	1.01	0.892		0.878	0.872	0.921
EMC-BAC-2	0.957	0.897	0.876	0.927	0.893	0.958	0.926	0.908	0.977	0.913	0.887	0.93	0.83	0.484	0.905	1.03	0.942	0.851
HARA	0.768	1.98	0.999	0.751	0.856	0.997	0.947	0.964	0.942	1.05	0.878	1	0.866	0.567	0.968	0.901	0.767	0.646
NCI-H727	1.02	0.92	0.987	0.808	0.842	0.885	0.887	0.948	0.898	0.97	0.763	1.11	1	0.81	0.746	0.741	0.948	0.884

Cell Line	relative viability ([1]; 0.08 µM)	relative viability ([1]; 0.253 µM)	relative viability ([1]; 0.8 µM)	relative viability ([1]; 2.53 µM)	relative viability ([1]; 8 µM)	relative viability (TGX 221; 0.08 µM)	relative viability (TGX 221; 0.253 µM)	relative viability (TGX 221; 0.8 µM)	relative viability (TGX 221; 2.53 µM)	relative viability (TGX 221; 8 µM)	relative viability (Ricolinostat; 0.08 µM)	relative viability (Ricolinostat; 0.253 µM)	relative viability (Ricolinostat; 0.8 µM)	relative viability (Ricolinostat; 2.53 µM)	relative viability (Ricolinostat + Foretinib; first compound 0.08 µM)	relative viability (Ricolinostat + Foretinib; first compound 0.253 µM)	relative viability (Ricolinostat + Foretinib; first compound 0.8 µM)	relative viability (Ricolinostat + Foretinib; first compound 2.53 µM)
NCI-H1944	0.902	1.05	0.94	0.965	0.844	0.82	0.915	0.911	0.883	0.851	0.835	1.03	0.876	0.692	0.828	0.835	0.689	0.641
COR-L 105	0.851	0.96	0.96	0.708	0.903	1.01	0.875	0.859	0.944	0.823	0.775	0.92	0.837	1.09		0.874	0.917	1.16
201T	0.945	0.964	0.932	0.94	1.02	0.911	0.959	0.979	0.865	0.876	0.876	0.978	1.02	0.93		1.09	1.14	1.08
NCI-H460	0.963	1.05	1.02	1.06	0.742	0.968	0.96	0.977	0.945	0.925	0.95	0.968	0.96	0.989	0.972	0.927	1.04	1.04
LOU-NH91	0.941	1.06	0.962	0.896	0.894	0.914	1	0.948	0.948	0.901		1.03	0.94	0.98	0.742	0.904	0.97	0.918
NCI-H2170	1.01	0.961	0.953	0.995	0.804	0.959	0.958	0.989	0.93	0.993	0.904	0.939	1.01	1.04	0.915	0.973	0.983	1.01
LU99A	0.984	0.905	0.95	0.89	0.911	0.859	0.857	0.896	0.89	0.981	0.877	0.926	0.865	0.641	0.727	0.631	0.734	0.571
ChaGo-K-1	0.785	1.08	1.01	1.01	0.809	0.904	0.938	0.987	0.958	1.04	0.936	1	0.921	0.832	0.895	0.912	0.861	0.86
NCI-H358	0.905	0.937	1.04	0.907	0.716	0.914	0.88	0.914	1.02	0.756	0.726	0.914	1.05	1.04	0.594	0.636	0.631	0.503
SW 1573	1.06	1.17	1.01	1.03	0.738	0.895	0.876	0.961	0.906	0.902	0.936	1.07	0.896	1.02	0.863	1.12	0.899	0.918
EBC-1	1.04	1.14	0.975	1.15	0.768	0.952	1.03	0.976	0.891	0.736	0.808	0.886	0.895	0.449	0.0899	0.101	0.0995	0.0994
LK-2	0.724	0.922	1.11	0.918	0.71	0.986	0.878	0.914	0.996	1.1	0.967	0.999	1	0.899	1.18	1.35	1.51	0.934
NCI-H596	0.777	1.22	1.05	0.98	0.841	1.03	0.953	1.02	0.94	0.997	0.999	1.1	0.987	0.851	0.922	0.825	0.857	0.924
NCI-H1650	0.727	1.29	0.913	0.93	0.612	0.979	0.816	0.862	0.859	0.705	0.774	0.884	0.789	0.678	1.17	1.05	0.886	0.635
NCI-H1437	0.935	1.11	0.994	1.14	0.891	1.02	0.942	0.998	0.983	0.929	0.951	0.993	0.969	0.763	1.12	1.28	1.17	1.05
PC-3 [JPC-3]	0.898	1.11	0.959	1.08	0.944	0.971	1.05	1.04	0.998	1.03	0.801	0.977	1.01	0.883		0.933	0.969	0.827
NCI-H1395		0.925	0.837	0.944	0.888	0.787	0.801	0.838	0.664	0.703		0.922	0.746	0.833		0.954	1.07	1.06
NCI-H1651	0.997	0.973	1.07	1	0.821	0.923	0.891	0.953	0.956	0.879	0.913	0.936	0.971	0.966	0.852	0.812	0.746	0.776
